Test results: ChEMBL document CHEMBL1158428, “The influence of double bond geometry in the inhibition of cyclooxygenases by sulindac derivatives” (Bioorg Med Chem Lett, 2009)
The source made the active and inactive calls. The rule behind the calls is not given here.

Legend:
[1] = biological target: T1, Prostaglandin G/H synthase 2 (Homo sapiens) (UniProt P35354); experiment: Inhibition of COX2
T1 sequence (whole entry): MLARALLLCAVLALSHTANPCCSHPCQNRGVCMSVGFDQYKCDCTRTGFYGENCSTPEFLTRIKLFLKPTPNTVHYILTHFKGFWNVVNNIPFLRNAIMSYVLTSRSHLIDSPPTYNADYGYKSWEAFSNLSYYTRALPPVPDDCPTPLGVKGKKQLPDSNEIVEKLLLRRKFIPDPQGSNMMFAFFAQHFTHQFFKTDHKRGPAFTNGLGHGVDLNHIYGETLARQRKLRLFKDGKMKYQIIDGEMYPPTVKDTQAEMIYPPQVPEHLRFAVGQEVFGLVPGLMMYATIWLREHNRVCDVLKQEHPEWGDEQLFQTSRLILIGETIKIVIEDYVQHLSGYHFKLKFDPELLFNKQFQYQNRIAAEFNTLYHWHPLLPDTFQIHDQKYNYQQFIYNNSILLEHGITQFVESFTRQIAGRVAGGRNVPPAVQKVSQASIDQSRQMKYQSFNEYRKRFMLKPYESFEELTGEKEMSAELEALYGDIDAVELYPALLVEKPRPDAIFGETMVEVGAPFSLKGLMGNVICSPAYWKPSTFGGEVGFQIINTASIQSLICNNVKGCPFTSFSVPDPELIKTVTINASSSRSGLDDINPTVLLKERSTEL

[2] = biological target: T2, Prostaglandin G/H synthase 1 (Ovis aries) (UniProt P05979); conditions: 115 nM
T2 sequence (whole entry): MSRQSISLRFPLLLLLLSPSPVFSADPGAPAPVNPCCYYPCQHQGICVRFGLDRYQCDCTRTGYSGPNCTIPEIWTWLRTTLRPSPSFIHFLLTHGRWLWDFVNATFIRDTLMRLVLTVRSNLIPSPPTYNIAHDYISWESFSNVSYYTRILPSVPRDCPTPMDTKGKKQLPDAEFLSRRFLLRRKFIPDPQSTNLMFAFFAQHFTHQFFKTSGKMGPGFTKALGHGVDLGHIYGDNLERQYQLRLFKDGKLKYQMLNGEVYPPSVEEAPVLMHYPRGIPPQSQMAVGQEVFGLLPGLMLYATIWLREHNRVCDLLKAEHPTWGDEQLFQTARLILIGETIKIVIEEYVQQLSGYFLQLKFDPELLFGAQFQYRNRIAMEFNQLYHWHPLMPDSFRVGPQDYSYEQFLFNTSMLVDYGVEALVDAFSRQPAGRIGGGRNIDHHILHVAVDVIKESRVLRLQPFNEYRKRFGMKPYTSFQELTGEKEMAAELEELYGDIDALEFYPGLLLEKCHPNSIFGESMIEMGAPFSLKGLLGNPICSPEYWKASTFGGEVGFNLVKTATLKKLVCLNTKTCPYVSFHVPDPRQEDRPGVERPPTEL
Description: Inhibition of ovine COX1 under saturated substrate level preincubated at 115 nM for 17 mins by TLC

Q: Which Activity [1] does the source give for `COc1ccc2c(c1)c(CC(=O)O)cn2C(=O)c1ccc(Cl)cc1` here?
A: inactive

Q: `CSc1ccc(/C=C2/C=C(CC(=O)O)c3cc(F)ccc32)cc1` was tested. Which inhibition [2] did it give?
A: 20%

Q: With `CSc1ccc(/C=C2/C(C)=C(CC(=O)O)c3cc(F)ccc32)cc1` as the compound, how does the inhibition [2] read?
A: 75%
